B1: rhCD73: recombinant human (rh) CD73 from Daresbury Proteins; CD73 mimic (protein, UniProt P21589 27-549, looked up)
5'-nucleotidase: WELTILHTNDVHSRLEQTSEDSSKCVNASRCMGGVARLFTKVQQIRRAEPNVLLLDAGDQYQGTIWFTVYKGAEVAHFMNALRYDAMALGNHEFDNGVEGLIEPLLKEAKFPILSANIKAKGPLASQISGLYLPYKVLPVGDEVVGIVGYTSKETPFLSNPGTNLVFEDEITALQPEVDKLKTLNVNKIIALGHSGFEMDKLIAQKVRGVDVVVGGHSNTFLYTGNPPSKEVPAGKYPFIVTSDDGRKVPVVQAYAFGKYLGYLKIEFDERGNVISSHGNPILLNSSIPEDPSIKADINKWRIKLDNYSTQELGKTIVYLDGSSQSCRFRECNMGNLICDAMINNNLRHTDEMFWNHVSMCILNGGGIRSPIDERNNGTITWENLAAVLPFGGTFDLVQLKGSTLKKAFEHSVHRYGQSTGEFLQVGGIHVVYDLSRKPGDRVVKLDVLCTKCRVPSYDPLKMDEVYKVILPNFLANGGDGFQMIKDELLRHDSGDQDINVVSTYISKMKVIYPAVEGRIKFS

Columns and labels:
rat model of T/HS = conditions: posttreatment; cited from earlier work
[1] = system: hypoxic CD73 deficient mice; conditions: exogenous administration; cited from earlier work
T/HS mice [2] = experiment: Pulmonary neutrophil sequestration (lung MPO activity) after trauma/hemorrhagic shock; assay type: in vivo; conditions: for neutrophil infiltration (lung MPO activity): NECA pretreatment 0.0025 mg/kg; for neutrophil sequestration / infiltration in lung (MPO activity): wild-type T/HS mice vs vehicle, i.p. pretreatment 30 min before shock, POM1 5 mg/kg, apyrase 125 U/kg, PSB 12379 50 mg/kg, rhCD73 2 mg/kg
Method: (§1) In one set of studies, wild-type mice were randomly assigned into the following groups: trauma/sham shock (T/SS) receiving vehicle (saline), trauma/hemorrhagic shock (T/HS) receiving vehicle (saline), T/HS receiving POM1 (5 mg/kg), T/HS receiving apyrase (125 U/kg), T/HS receiving PSB 12379 (50 mg/kg), and T/HS receiving rhCD73 (2 mg/kg). In addition, in another group of studies, CD39^−/−, CD73^−/−, A2BAR^−/− and wild-type type mice were subjected to T/SS or T/HS. Some CD39^−/− and CD73^−/− were pretreated with NECA (0.0025 mg/kg). In pharmacological experiments, mice were pretreated intraperitoneally (30 min before T/SS or T/HS) with various agents.
(§2) The mice were given anesthesia using 1% isoflurane and their rectal temperature was maintained between 36.5 and 37.5° C. using a feedback-controlled homeothermic blanket heating system (Sumno-suite, Kent Scientific). Hemorrhagic shock was induced using a fixed-pressure model. Initially, a midline laparotomy of 2 cm was performed on the anesthetized mice, which was later closed with a 4-0 silk suture (034902, Covetrus, USA). Following this, catheters were placed in the right and left femoral arteries for monitoring blood pressure and blood withdrawal, respectively. A sterile 1-ml syringe with a 30G needle attached to PE-10 tubing filled with 0.2 ml of 1% heparinized saline was used for blood withdrawal, and each mouse received 1U heparin. Blood pressure was monitored using a continuous blood-pressure monitoring system (Powerlab 8/30, ADInstruments, Colorado Springs, CO, USA). After 5 minutes of baseline blood pressure recording, a drug or vehicle was administered to the mice, followed by inducing shock for a period of 2.5 hours, during which the blood pressure was maintained between 28-32 mmHg by withdrawing or reinfusing the shed blood. At the end of the shock period, the mice were resuscitated with Ringer's Lactate at three times the amount of shed blood for 15 minutes (32). Three hours after resuscitation, the mice were euthanized and bronchoalveolar lavage fluid (BALF), blood, and tissue samples were collected. T/SS animals were exposed to the same procedures as other animals except for blood withdrawal (FIG. 1).
Lung, liver, kidney, and gut samples were pooled from 4 mice in the same group, homogenized, sonicated, and treated with a 1×RIPA Buffer with Protease/phosphatase inhibitor cocktail (P8340, Sigma, USA), and the resulting homogenate was centrifuged at 13.000× g for 10 minutes at 4° C. Total protein content was determined by using Qubit 4.0 Fluorometer (Thermo Fisher, USA) as per the manufacturer's instructions.
To evaluate neutrophil sequestration in the lung following T/SS or T/HS, myeloperoxidase (MPO) activity was assessed using an MPO activity kit (MAK068, Sigma, USA). The supernatant of lung lysates was assayed according to the manufacturer's instructions (32).

T/HS mice [3] = experiment: Lung permeability (Evans blue dye) after trauma/hemorrhagic shock; assay type: in vivo; conditions: wild-type T/HS mice vs vehicle; i.p. pretreatment 30 min before shock; POM1 5 mg/kg, apyrase 125 U/kg, PSB 12379 50 mg/kg, rhCD73 2 mg/kg
Method: as §1, §2
Mice were re-anesthetized with isoflurane 3 hours after the end of resuscitation. Evans blue dye (EBD) technique was used to determine lung permeability. EBD was administered through the tail vein, and about 1 ml of blood was withdrawn from the tail artery five minutes later. The supernatant of BALF was assayed at 620 nm spectrophotometrically. The amount of Evans blue dye in the BALF was then expressed as a proportion of the amount in the plasma. (5, 32).

T/HS mice [4] = experiment: Plasma AST and ALT levels (liver injury) after trauma/hemorrhagic shock; assay type: in vivo; conditions: for T/HS-enhanced ALT level in plasma / T/HS-enhanced AST level in plasma: wild-type T/HS mice vs vehicle, i.p. pretreatment 30 min before shock; for liver injury: T/HS mice
Method: as §1, §2
Plasma samples were analyzed to determine the levels of aspartate aminotransferase (AST) and alanine aminotransferase (ALT). To do this, the samples were diluted with AST (TR70121 Thermo Fisher, USA) and ALT (TR71122 Thermo Fisher, USA) reagents at a 1:10 ratio, and the resulting light signal was measured using a spectrophotometer at 340 and 405 nm (32).

T/HS mice [5] = experiment: Plasma IL-6 and IL-10 by ELISA after trauma/hemorrhagic shock; assay type: in vivo; conditions: T/HS mice compared to vehicle-treated T/HS mice
Method: as §1, §2
IL-6 and IL-10 levels were measured in plasma samples using enzyme-linked immunosorbent assay (ELISA) kits (DY406, DY417; R&D Systems Minneapolis, USA) according to the manufacturer's instructions (32).

CD39 deficient mice = conditions: cardiac, renal, hepatic, intestinal ischemia-reperfusion, exogenous supplementation; cited from earlier work

Row | Molecule | lung permeability (rat model of T/HS) | neutrophil infiltration into the lung (rat model of T/HS) | increased vascular permeability [1] | polymorphonuclear neutrophil extravasation [1] | neutrophil infiltration (lung MPO activity) (T/HS mice [2]; CD39-/- mice after T/HS) | neutrophil infiltration (lung MPO activity) (T/HS mice [2]; CD73-/- mice after T/HS) | T/HS-induced lung injury (lung permeability, EBD method) (T/HS mice [3]) | T/HS-enhanced ALT level in plasma (T/HS mice [4]) | T/HS-enhanced AST level in plasma (T/HS mice [4]) | plasma IL-6 levels (T/HS mice [5]) | plasma IL-10 levels (T/HS mice [5]) | neutrophil sequestration / infiltration in lung (MPO activity) (T/HS mice [2]) | increased ischemic organ injury (CD39 deficient mice) | liver injury (T/HS mice [4])
1 | N#Cc1c(N)nc(SCC(N)=O)c(C#N)c1-c1ccc(OCC2CC2)cc1 [BAY 60-6583] | decreases | not | – | – | – | – | – | – | – | – | – | – | – | –
2 | CCNC(=O)[C@H]1O[C@@H](n2cnc3c(N)ncnc32)[C@H](O)[C@@H]1O [NECA, 1-(6-Amino-9H-purin-9-yl)-1-deoxy-N-ethyl-β-D-ribofuranuronamide] | – | – | reversed | reversed | decreased | decreased | – | – | – | – | – | – | – | –
3 | O=P(O)(O)CP(=O)(O)OC[C@H]1O[C@@H](n2cnc3c(NCc4ccccc4)ncnc32)[C@H](O)[C@@H]1O.[Na].[Na] [PSB 12379, N6-Benzyl-α,β-methyleneadenosine 5′-diphosphate disodium salt] | – | – | – | – | – | – | increased | increased | increased | increased | reduced | increased | – | –
4 | apyrase | – | – | – | – | – | – | moderated | suppressed | suppressed | lower | increased | moderated | reversed | decreased
5 | sodium polyoxotungstate [POM1] | – | – | – | – | – | – | exacerbated | increased | increased | higher | similar | exacerbated | – | –
6 | B1 | – | – | – | – | – | – | decreased | suppressed | suppressed | decreased | increased | decreased | – | decreased

Source: patent publication US20260041741A1, “CD39 AND CD73 FOR THE THERAPY OF HEMORRHAGIC SHOCK” (The Trustees of Columbia University in the City of New York, priority 2023, published 2026)
